{
  "source": "paper PMC9180926",
  "about": "“Discovery of Novel 3-Hydroxyquinazoline-2,4(1H,3H)-Dione Derivatives: A Series of Metal Ion Chelators with Potent Anti-HCV Activities” (International Journal of Molecular Sciences, 2022)",
  "assay": "Metal ion chelation assay using UV-Vis spectrophotometry",
  "assay_type": "physicochemical",
  "source_text": "The chelation rules of the 3-hydroxyquinazoline-2,4(1H,3H)-diones with magnesium ions were explored by UV-Vis spectrophotometry, which was widely used to study the binding properties of compounds with metal ions in vitro [56, 57, 58]. For the sake of eliminating the interference of heteroaryl groups on the determination of metal ion chelation, the representative compound 21e with phenyl group substituted at the C-7 position was selected to study its chelation ability with Mg^2+ under different conditions. […] This is probably because compound 21e mainly exists in the free molecular state with the N-hydroxyl group protonated in methanol, which is difficult to chelate with Mg^2+. Intriguingly, after the introduction of 5 mm NaOAc to the methanol solution containing 21e, the effect of MgCl2 on the absorbance of the system totally changed (Figure 5B). […] Remarkably, merely 20 μM MgCl2 was able to increase the absorbance by more than 0.5. […] A reasonable logic is that the addition of NaOAc raised the pH of the methanol solution, resulting in partial ionization of compound 21e at the N-hydroxyl group. Subsequently, 21e in the ionic state formed a chelation complex with Mg^2+, which increased the absorbance of the solution.\nWith the aim of verifying whether 21e has the ability to chelate with Mg^2+ in the ionic state, we further investigated the influence of various concentrations of NaOAc on the differential UV-Vis spectra caused by the addition of MgCl2. […] Moreover, the magnitude of the variation in the spectrum is proportional to the concentration of NaOAc. […] The comparison between different UV-Vis spectra also verified that compound 21e could chelate with Mg^2+ in the N-hydroxyl deprotonated form rather than the free molecular state.\n2 mL of methanol solution containing the components in the sample or control group (Table 4) was added to a quartz cuvette (BQ-114-2, Chongqing Xinweier Glass Co., Ltd., Chongqing, China). The absorbance at 200–400 nm was scanned by a UV-Vis spectrophotometer (Agilent Cary 60, Agilent Technologies, Santa Clara, CA, USA), and the blank methanol was used for baseline calibration. The absorbance of the control group was subtracted from that of the sample group at the corresponding wavelength to obtain the differential UV-Vis spectra, which were used to analyze the chelating property of the compound with Mg^2+.",
  "data": [
    {"smiles": "O=c1[nH]c2cc(-c3ccccc3)ccc2c(=O)n1O", "note": "[21e, 3-Hydroxy-7-phenylquinazoline-2,4(1H,3H)-dione]", "values": [
      {"measurement": "absorbance difference at 254 nm between control group and sample group", "setting": "50 μM compound in methanol, no NaOAc, MgCl2 up to 640 μM", "result": "no more than 0.1"},
      {"measurement": "increase of absorbance at 254 nm", "setting": "50 μM compound, 80 μM MgCl2, 200 μM to 5 mm NaOAc in methanol", "result": "0.8–1.2"},
      {"measurement": "increase of absorbance at 254 nm", "setting": "50 μM compound, 5 mm NaOAc in methanol, 20 μM MgCl2", "result": "more than 0.5"},
      {"measurement": "Mg^2+ concentration at which absorbance change reaches equilibrium", "setting": "50 μM compound, 5 mm NaOAc in methanol, 254 nm", "result": "about 400 μM"}
    ]}
  ]
}
